Reference: ChEMBL document CHEMBL2203055, “From α4β2 Nicotinic Ligands to the Discovery of σ1 Receptor Ligands: Pharmacophore Analysis and Rational Design” (ACS Med Chem Lett, 2012)

Legend:
[1] = target: Histamine H4 receptor (Homo sapiens) (UniProt Q9H3N8); assay: Displacement of [3H]histamine from histamine H4 receptor at 10 uM after 1.5 hrs by microbeta scintillation counting analysis
[2] = target: 5-hydroxytryptamine receptor 2C (Homo sapiens, UniProt P28335); assay: Displacement of [3H]mesulergine from human recombinant 5-HT2C receptor after 1.5 hrs by microbeta scintillation counting analysis
5-hydroxytryptamine receptor 2C, sequence (P28335 whole entry): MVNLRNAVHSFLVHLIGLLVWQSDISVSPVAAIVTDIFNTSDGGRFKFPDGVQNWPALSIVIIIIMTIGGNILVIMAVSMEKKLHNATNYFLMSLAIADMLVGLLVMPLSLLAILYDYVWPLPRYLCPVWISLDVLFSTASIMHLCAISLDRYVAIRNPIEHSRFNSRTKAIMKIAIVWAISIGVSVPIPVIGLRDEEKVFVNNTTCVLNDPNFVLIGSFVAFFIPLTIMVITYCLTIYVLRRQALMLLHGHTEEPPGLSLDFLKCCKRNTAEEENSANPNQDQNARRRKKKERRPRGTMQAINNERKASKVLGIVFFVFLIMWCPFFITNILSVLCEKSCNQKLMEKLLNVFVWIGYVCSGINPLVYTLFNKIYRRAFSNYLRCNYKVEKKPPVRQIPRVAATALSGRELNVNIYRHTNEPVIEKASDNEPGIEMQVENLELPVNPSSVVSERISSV

[3] = target: Beta-2 adrenergic receptor (Homo sapiens, UniProt P07550); assay: Displacement of [125I]Iodopindolol from beta 2 adrenergic receptor at 10 uM after 1.5 hrs by microbeta scintillation counting analysis
Beta-2 adrenergic receptor, sequence (P07550 whole entry, looked up): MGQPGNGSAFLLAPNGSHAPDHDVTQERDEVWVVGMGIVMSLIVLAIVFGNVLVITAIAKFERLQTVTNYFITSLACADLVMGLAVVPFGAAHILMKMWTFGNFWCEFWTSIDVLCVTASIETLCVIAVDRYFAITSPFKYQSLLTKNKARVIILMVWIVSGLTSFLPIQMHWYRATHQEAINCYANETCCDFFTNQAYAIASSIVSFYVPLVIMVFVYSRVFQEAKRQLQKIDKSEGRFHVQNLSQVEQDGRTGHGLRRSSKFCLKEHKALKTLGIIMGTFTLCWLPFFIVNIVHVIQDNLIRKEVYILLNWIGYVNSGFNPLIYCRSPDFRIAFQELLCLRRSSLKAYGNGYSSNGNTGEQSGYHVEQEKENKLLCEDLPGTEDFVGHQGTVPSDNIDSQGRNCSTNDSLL

[4] = target: Beta-1 adrenergic receptor (Homo sapiens) (UniProt P08588); assay: Displacement of [125I]Iodopindolol from beta 1 adrenergic receptor at 10 uM after 1.5 hrs by microbeta scintillation counting analysis
Beta-1 adrenergic receptor (Homo sapiens), sequence (P08588 whole entry, looked up): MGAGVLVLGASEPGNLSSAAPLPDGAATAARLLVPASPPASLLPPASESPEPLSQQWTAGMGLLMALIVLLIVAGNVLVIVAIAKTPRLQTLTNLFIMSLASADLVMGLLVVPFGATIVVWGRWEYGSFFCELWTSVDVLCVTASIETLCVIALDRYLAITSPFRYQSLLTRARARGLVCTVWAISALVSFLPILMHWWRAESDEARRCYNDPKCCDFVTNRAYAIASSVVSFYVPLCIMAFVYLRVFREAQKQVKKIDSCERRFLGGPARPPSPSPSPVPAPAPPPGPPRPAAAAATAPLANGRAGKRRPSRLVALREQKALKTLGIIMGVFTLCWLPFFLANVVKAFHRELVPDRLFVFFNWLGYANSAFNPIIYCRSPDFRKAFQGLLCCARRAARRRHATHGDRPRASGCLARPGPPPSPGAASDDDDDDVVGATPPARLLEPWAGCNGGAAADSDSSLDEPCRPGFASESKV

[5] = target: Sodium-dependent noradrenaline transporter (Homo sapiens, UniProt P23975); assay: Displacement of [3H]nisoxetine from human recombinant NET at 10 uM after 1.5 hrs by microbeta scintillation counting analysis
[6] = target: 5-hydroxytryptamine receptor 1D (Homo sapiens) (UniProt P28221); assay: Displacement of [3H]GR125743 from human recombinant 5-HT1D receptor at 10 uM after 1.5 hrs by microbeta scintillation counting analysis
5-hydroxytryptamine receptor 1D (Homo sapiens), sequence (P28221 whole entry): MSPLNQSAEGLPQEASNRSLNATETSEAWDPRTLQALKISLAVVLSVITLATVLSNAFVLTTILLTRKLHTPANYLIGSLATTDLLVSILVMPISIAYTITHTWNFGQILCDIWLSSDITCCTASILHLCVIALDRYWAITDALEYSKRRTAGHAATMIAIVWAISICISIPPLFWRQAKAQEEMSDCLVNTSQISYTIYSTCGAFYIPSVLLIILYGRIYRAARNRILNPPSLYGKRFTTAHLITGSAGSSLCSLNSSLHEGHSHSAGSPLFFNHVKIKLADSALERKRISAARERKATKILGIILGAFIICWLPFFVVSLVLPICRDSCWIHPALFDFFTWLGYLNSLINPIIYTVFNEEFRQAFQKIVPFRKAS

[7] = target: Muscarinic acetylcholine receptor M1 (Homo sapiens) (UniProt P11229); assay: Displacement of [3H]QNB from human recombinant muscarinic M1 receptor at 10 uM after 1.5 hrs by microbeta scintillation counting analysis
[8] = target: Alpha-1B adrenergic receptor (Homo sapiens) (UniProt P35368); assay: Displacement of [3H]prazosin from alpha 1B adrenergic receptor at 10 uM after 1 hr by microbeta scintillation counting analysis
[9] = target: Sodium-dependent serotonin transporter (Homo sapiens) (UniProt P31645); assay: Displacement of [3H]citalopram from human recombinant SERT at 10 uM after 1.5 hrs by microbeta scintillation counting analysis
[10] = target: D(4) dopamine receptor (Homo sapiens) (UniProt P21917); assay: Displacement of [3H]N-methylspiperone from D4 receptor at 10 uM after 1.5 hrs by microbeta scintillation counting analysis
D(4) dopamine receptor (Homo sapiens), sequence (P21917 whole entry): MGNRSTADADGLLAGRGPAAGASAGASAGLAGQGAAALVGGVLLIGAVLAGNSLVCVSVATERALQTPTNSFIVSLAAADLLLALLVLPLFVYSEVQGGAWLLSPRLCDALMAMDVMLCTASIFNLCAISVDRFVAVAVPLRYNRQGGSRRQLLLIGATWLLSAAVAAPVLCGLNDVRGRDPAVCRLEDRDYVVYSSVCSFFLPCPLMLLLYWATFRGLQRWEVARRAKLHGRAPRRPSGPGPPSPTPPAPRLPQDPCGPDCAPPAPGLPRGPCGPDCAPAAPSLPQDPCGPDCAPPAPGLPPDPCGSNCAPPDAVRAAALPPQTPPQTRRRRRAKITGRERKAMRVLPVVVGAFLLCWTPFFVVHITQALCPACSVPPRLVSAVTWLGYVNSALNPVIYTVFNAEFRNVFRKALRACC

[11] = target: D(1A) dopamine receptor (Homo sapiens) (UniProt P21728); assay: Displacement of [3H]SCH23390 from human recombinant D1 receptor at 10 uM after 1.5 hrs by microbeta scintillation counting analysis
D(1A) dopamine receptor (Homo sapiens), sequence (P21728 whole entry): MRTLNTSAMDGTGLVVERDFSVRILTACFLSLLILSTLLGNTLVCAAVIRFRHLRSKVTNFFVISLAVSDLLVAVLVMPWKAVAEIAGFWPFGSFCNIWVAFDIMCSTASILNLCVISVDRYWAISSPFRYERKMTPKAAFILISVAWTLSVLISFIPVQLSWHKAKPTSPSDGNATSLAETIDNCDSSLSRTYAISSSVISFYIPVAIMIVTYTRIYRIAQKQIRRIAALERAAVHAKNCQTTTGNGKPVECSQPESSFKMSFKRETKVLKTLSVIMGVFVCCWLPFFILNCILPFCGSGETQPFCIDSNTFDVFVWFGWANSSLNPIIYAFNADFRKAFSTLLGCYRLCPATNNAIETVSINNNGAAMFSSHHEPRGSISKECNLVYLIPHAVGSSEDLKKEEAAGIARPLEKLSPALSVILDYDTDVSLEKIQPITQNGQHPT

[12] = target: 5-hydroxytryptamine receptor 2B (Homo sapiens, UniProt P41595); assay: Displacement of [3H]LSD from human recombinant 5-HT2B receptor at 10 uM after 1.5 hrs by microbeta scintillation counting analysis
[13] = target: Kappa-type opioid receptor (Rattus norvegicus) (UniProt P34975); assay: Displacement of [3H]U69593 from rat kappa-opioid receptor at 10 uM after 1.5 hrs by microbeta scintillation counting analysis
[14] = target: Sodium-dependent dopamine transporter (Homo sapiens, UniProt Q01959); assay: Displacement of [3H]WIN35428 from human recombinant DAT after 1.5 hrs by microbeta scintillation counting analysis
[15] = target: 5-hydroxytryptamine receptor 6 (Homo sapiens, UniProt P50406); assay: Displacement of [3H]LSD from human recombinant 5-HT6 receptor at 10 uM after 1.5 hrs by microbeta scintillation counting analysis
5-hydroxytryptamine receptor 6, sequence (P50406 whole entry): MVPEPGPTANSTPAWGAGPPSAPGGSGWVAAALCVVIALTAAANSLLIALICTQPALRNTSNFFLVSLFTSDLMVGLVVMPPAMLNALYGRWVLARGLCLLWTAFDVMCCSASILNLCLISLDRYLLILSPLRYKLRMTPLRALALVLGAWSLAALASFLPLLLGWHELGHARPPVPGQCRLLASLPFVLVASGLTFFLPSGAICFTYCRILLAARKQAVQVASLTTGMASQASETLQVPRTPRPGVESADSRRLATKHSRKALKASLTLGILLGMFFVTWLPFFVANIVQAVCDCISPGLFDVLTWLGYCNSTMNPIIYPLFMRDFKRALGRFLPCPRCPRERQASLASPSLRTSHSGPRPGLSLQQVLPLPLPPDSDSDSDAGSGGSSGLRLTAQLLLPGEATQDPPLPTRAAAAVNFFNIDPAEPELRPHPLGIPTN

[16] = Displacement of [3H]DTG from sigma 2 receptor in rat PC12 cell membrane after 2 hrs by microbeta scintillation counting analysis; type: cell membranes; settings: pc-12
[17] = target: Delta-type opioid receptor (Homo sapiens) (UniProt P41143); assay: Displacement of [3H]DADLE from human recombinant delta-opioid receptor at 10 uM after 1.5 hrs by microbeta scintillation counting analysis
[18] = target: D(2) dopamine receptor (Homo sapiens) (UniProt P14416); assay: Displacement of [3H]N-methylspiperone from human recombinant D2 receptor at 10 uM after 1.5 hrs by microbeta scintillation counting analysis
[19] = target: 5-hydroxytryptamine receptor 5A (Homo sapiens) (UniProt P47898); assay: Displacement of [3H]LSD from human recombinant 5-HT5A receptor at 10 uM after 1.5 hrs by microbeta scintillation counting analysis
[20] = target: 5-hydroxytryptamine receptor 7 (Homo sapiens) (UniProt P34969); assay: Displacement of [3H]LSD from human recombinant 5-HT7 receptor at 10 uM after 1.5 hrs by microbeta scintillation counting analysis
5-hydroxytryptamine receptor 7 (Homo sapiens), sequence (P34969 whole entry): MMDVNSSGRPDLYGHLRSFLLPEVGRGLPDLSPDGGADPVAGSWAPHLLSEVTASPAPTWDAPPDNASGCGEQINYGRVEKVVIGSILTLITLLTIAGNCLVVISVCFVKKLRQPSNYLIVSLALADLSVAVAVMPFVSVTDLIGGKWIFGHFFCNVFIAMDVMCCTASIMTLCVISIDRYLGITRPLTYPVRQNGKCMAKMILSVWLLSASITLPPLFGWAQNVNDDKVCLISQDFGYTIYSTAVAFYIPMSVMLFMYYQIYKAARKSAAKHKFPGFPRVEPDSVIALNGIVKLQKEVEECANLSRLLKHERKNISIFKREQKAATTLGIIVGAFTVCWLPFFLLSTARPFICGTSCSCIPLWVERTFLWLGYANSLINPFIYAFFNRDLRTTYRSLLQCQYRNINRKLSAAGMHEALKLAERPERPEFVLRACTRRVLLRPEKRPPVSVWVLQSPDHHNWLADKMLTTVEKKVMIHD

[21] = target: 5-hydroxytryptamine receptor 2C (Homo sapiens) (UniProt P28335); assay: Displacement of [3H]mesulergine from human recombinant 5-HT2C receptor at 10 uM after 1.5 hrs by microbeta scintillation counting analysis
5-hydroxytryptamine receptor 2C (Homo sapiens), sequence (P28335 whole entry): as the sequence (P28335 whole entry) above

[22] = target: 5-hydroxytryptamine receptor 2A (Homo sapiens, UniProt P28223); assay: Displacement of [3H]ketanserin from human recombinant 5-HT2A receptor after 1.5 hrs by microbeta scintillation counting analysis
5-hydroxytryptamine receptor 2A, sequence (P28223 whole entry): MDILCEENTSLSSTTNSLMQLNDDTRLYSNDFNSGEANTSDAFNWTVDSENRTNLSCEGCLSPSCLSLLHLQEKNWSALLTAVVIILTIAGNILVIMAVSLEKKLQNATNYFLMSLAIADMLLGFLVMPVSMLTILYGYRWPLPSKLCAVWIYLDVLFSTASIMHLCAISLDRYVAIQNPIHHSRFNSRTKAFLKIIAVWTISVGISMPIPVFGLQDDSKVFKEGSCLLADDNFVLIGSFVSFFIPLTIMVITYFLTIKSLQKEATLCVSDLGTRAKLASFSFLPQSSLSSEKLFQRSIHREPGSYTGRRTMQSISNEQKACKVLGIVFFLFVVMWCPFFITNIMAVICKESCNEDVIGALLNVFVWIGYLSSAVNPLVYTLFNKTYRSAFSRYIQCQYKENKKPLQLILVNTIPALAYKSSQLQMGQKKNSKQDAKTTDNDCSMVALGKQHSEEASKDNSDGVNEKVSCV

[23] = target: Alpha-2C adrenergic receptor (Homo sapiens) (UniProt P18825); assay: Displacement of [3H]clonidine from alpha 2C adrenergic receptor at 10 uM after 40 mins by microbeta scintillation counting analysis
[24] = target: 5-hydroxytryptamine receptor 1B (Homo sapiens) (UniProt P28222); assay: Displacement of [3H]GR125743 from human recombinant 5-HT1B receptor at 10 uM after 1.5 hrs by microbeta scintillation counting analysis
[25] = target: 5-hydroxytryptamine receptor 1E (Homo sapiens) (UniProt P28566); assay: Displacement of [3H]5-HT from human recombinant 5-HT1E receptor at 10 uM after 1.5 hrs by microbeta scintillation counting analysis
5-hydroxytryptamine receptor 1E (Homo sapiens), sequence (P28566 whole entry): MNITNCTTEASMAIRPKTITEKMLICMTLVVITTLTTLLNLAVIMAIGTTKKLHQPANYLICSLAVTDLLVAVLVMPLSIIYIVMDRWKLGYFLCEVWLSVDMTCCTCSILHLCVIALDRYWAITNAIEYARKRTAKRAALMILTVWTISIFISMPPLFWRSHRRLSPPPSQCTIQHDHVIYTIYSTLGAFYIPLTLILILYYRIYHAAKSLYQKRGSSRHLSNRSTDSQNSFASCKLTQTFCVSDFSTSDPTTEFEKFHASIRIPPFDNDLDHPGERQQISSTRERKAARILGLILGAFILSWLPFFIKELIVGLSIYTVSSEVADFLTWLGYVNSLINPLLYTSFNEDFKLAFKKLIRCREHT

[26] = target: Alpha-2A adrenergic receptor (Homo sapiens) (UniProt P08913); assay: Displacement of […] from alpha 2A adrenergic receptor at 10 uM after 40 mins by microbeta scintillation counting analysis
[27] = target: Muscarinic acetylcholine receptor M2 (Homo sapiens) (UniProt P08172); assay: Displacement of [3H]QNB from human recombinant muscarinic M2 receptor at 10 uM after 1.5 hrs by microbeta scintillation counting analysis
[28] = target: Sigma non-opioid intracellular receptor 1 (Rattus norvegicus, UniProt Q9R0C9); assay: Displacement of [3H]pentazocine from sigma 1 receptor in rat brain membrane after 2.5 hrs by microbeta scintillation counting analysis; type: cell membranes
Sigma non-opioid intracellular receptor 1, sequence (Q9R0C9 whole entry): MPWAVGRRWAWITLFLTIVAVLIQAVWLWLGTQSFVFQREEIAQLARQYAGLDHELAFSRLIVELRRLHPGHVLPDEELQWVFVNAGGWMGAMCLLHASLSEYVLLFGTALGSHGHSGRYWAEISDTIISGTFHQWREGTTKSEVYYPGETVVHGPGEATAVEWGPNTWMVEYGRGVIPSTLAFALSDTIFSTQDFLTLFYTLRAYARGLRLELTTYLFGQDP

[29] = target: Muscarinic acetylcholine receptor M3 (Homo sapiens) (UniProt P20309); assay: Displacement of [3H]QNB from human recombinant muscarinic M3 receptor at 10 uM after 1.5 hrs by microbeta scintillation counting analysis
[30] = target: Muscarinic acetylcholine receptor M5 (Homo sapiens) (UniProt P08912); assay: Displacement of [3H]QNB from human recombinant muscarinic M5 receptor at 10 uM after 1.5 hrs by microbeta scintillation counting analysis
[31] = target: Mu-type opioid receptor (Homo sapiens) (UniProt P35372); assay: Displacement of [3H]DAMGO from mu-opioid receptor at 10 uM after 1.5 hrs by microbeta scintillation counting analysis
Rattus norvegicus = organism: Rattus norvegicus; assay: Displacement of [3H]muscimol from GABAA receptor in rat brain membrane at 10 uM after 1.5 hrs by microbeta scintillation counting analysis; type: cell membranes
[32] = target: Alpha-2B adrenergic receptor (Homo sapiens) (UniProt P18089); assay: Displacement of [3H]clonidine from human recombinant alpha 2B adrenergic receptor at 10 uM after 40 mins by microbeta scintillation counting analysis

SMILES | Efficacy [1] [%] | Ki [2] [nM] | Efficacy [3] [%] | Efficacy [4] [%] | Efficacy [5] [%] | Efficacy [6] [%] | Efficacy [7] [%] | Efficacy [8] [%] | Efficacy [9] [%] | Efficacy [10] [%] | Efficacy [11] [%] | Efficacy [12] [%] | Efficacy [13] [%] | Ki [14] [nM] | Efficacy [15] [%] | Ki [16] [nM] | Efficacy [17] [%] | Efficacy [18] [%] | Efficacy [19] [%] | Efficacy [20] [%] | further results
c1ccc(OCc2cc(OC[C@@H]3CCN3)no2)cc1 | 42.6 | > 10000 | 29.4 | 22.1 | 97.2 | 14 | 5.7 | 18.1 | 8.8 | 30 | 6.1 | 43.3 | 6.7 | 24 | 51.6 | 1470 | 4.9 | 22.9 | 15.2 | 42.4 | Efficacy [21]: 68.8%; Ki [22]: 6400 nM; Efficacy [23]: 43.8%; Efficacy [24]: 2.3%; Efficacy [25]: 5.9%; Efficacy [26]: 17.4%; Efficacy [27]: 12.6%; Ki [28]: 33 nM; Efficacy [29]: 47.6%; Efficacy [30]: 44.5%; Efficacy [31]: 38.1%; Efficacy (Rattus norvegicus): 2.5%; Efficacy [32]: 34.8%
c1ccc(OCc2cc(OC[C@@H]3CCCN3)no2)cc1 | 26.5 | > 10000 | 55.6 | -1.2 | 95.9 | 15.7 | 4.4 | 27.8 | 3.4 | 32 | -5.7 | 54.5 | 9.4 | 373 | 28.3 | 1310 | 10.3 | 23.9 | 32.4 | 16.9 | Efficacy [21]: 76.9%; Ki [22]: 4410 nM; Efficacy [23]: 39.3%; Efficacy [24]: -1.2%; Efficacy [25]: -4.7%; Efficacy [26]: 36.1%; Efficacy [27]: 11.8%; Ki [28]: 4.1 nM; Efficacy [29]: 12.2%; Efficacy [30]: 36.6%; Efficacy [31]: 29.8%; Efficacy (Rattus norvegicus): 5.7%; Efficacy [32]: 44.4%
